According to patent publication US3965105A, “Phenyl-lower-alkylamines” (Sterling Drug Inc., priority 1975, dated 1976):

Columns and labels:
[1] = inhibition of carrageenin-induced foot edema test (carrageenin edema, CE); assay type: in vivo; settings: oral, text: millimoles (μM)/kg.)
Procedure: (§1) Anti-inflammatory activity was determined using (1) the inhibition of carrageenin-induced foot edema test essentially described by […] and (2) a modification of the inhibition of adjuvant-induced arthritis test described by Pierson, J. Chronic Diseases 16, 863 (1963) and Glenn et al., Am. J. Vet. Res. 26, 1180 (1965).
(§2) The phenyl-lower-alkylamines of formula I of the invention have been tested in the carrageenin edema (CE) and adjuvant arthritis (AA) tests and found to have anti-inflammatory activity. Data so-obtained, stated in terms of percent inhibition at a dose expressed in terms of millimoles (μM)/kg.,are given below. All data were obtained on oral administration.

[2] = inhibition of adjuvant-induced arthritis test, modified (adjuvant arthritis, AA); assay type: in vivo; settings: oral, text: millimoles (μM)/kg.)
Procedure: as §1, §2

| Compound | CE (% Inhib.) ([1]; dose 0.08 (head: mmol/kg) [%] | CE (% Inhib.) ([1]; dose 0.324 (head: mmol/kg) [%] | AA (% Inhib.) ([2]; dose 0.324 (head: mmol/kg) [%] | CE (% Inhib.) ([1]; dose 0.02 (head: mmol/kg) [%] | AA (% Inhib.) ([2]; dose 0.01 (head: mmol/kg) [%] | AA (% Inhib.) ([2]; dose 0.04 (head: mmol/kg) [%] | AA (% Inhib.) ([2]; dose 0.16 (head: mmol/kg) [%] | CE (% Inhib.) ([1]; dose 0.005 (head: mmol/kg) [%] |
| --- | --- | --- | --- | --- | --- | --- | --- | --- |
| CC(C)Cc1ccc(C(C)CN2C(C)CCCC2C)cc1 (stereo not drawn) [Example 3, 2,6-dimethyl-1-[2-(4-isobutylphenyl)propyl]piperidine] | 0 | 8 | 55 |  |  |  |  |  |
| CCN(CC)CCCC(C)NCC(C)c1ccc(CC(C)C)cc1 (stereo not drawn) [Example 2, N-[2-(4-isobutylphenyl)propyl]-N-[5-(N',N'-diethylamino)-2-pentyl]amine] | 17 | 39 |  | 0 | 32 | 34 | 63 |  |
| CC(C)Cc1ccc(C(C)CN2CCCCC2CC2CCCCC2)cc1 (stereo not drawn) [Example 1, 2-cyclohexylmethyl-1-[2-(4-isobutylphenyl)propyl]piperidine] | 0 | 5 | 75 |  |  |  |  |  |
| CC(CN1CCCCC1CC1CCCCC1)c1ccccc1 (stereo not drawn) [Example 5, 2-cyclohexylmethyl-1-(2-phenylpropyl)piperidine] | 13 |  |  | 16 |  |  |  | 0 |
| CC(CN1CCCCC1CC1CCCCC1)c1cccc(Br)c1 (stereo not drawn) [Example 4, 2-cyclohexylmethyl-1-[2-(3-bromophenyl)propyl]piperidine] | 0 |  |  | 4 |  |  |  | 7 |
